Experimental findings from patent US20120058133A1, “INHIBITION OF TRNA SYNTHETASES AND THERAPEUTIC APPLICATIONS THEREOF” (President and Fellows of Harvard College, priority 2009, published 2012) are described below.

The subject of the experiment is murine CD4+ CD25− T cells. The experiment in a line: Th17 differentiation of activated CD4+ CD25− T cells (TGFβ plus IL-6; IL-17+ IFNγ− cells). The format is cell-based, mouse. The settings on record: for rescue of HF-inhibited Th17 differentiation by added amino acids: 1 mM amino acids; for IC50: Mus musculus, T-cell. The method, then: Purified CD4^+ CD25^− T cells were activated in vitro as previously described (Djuretic et al., Nat. Immunol. 8:145, 2007) using 0.3 μg/ml hamster anti-mouse CD3 (clone 145-2C11) (ATCC—Manassas, Va.) and 0.5 μg/ml hamster anti-mouse CD28 (BD Pharmingen—San Jose, Calif.). Activated cell cultures were differentiated using the following combinations of cytokines and antibodies: iTreg-recombinant human TGFβ1 (3 ng/ml—R&D systems, Minneapolis, Minn.), Th17-TGFβ1 (3 ng/ml) plus recombinant mouse IL-6 (30 ng/ml—R&D systems). Th1 and Th2 differentiation was performed as previously described (Djuretic et al., Nat. Immunol. 8:145, 2007). Human IL-2 supernatant (National Cancer Institute) was used in culture at 0.01 U/ml and was added at 48 hours-post activation when T cells were split into tissue culture wells lacking CD3 and CD28 antibodies, with the exception of Th17 cultures that were maintained in the absence of exogenous IL-2. CD8^+ T cells were activated with 1 μg/ml anti-CD3 and 1 μg/ml anti-CD28 and were expanded in 0.1 U/ml IL-2 until day 6 post activation. CD43-depleted B cells were activated in vitro by culturing with 25 μg/ml LPS (Sigma—St. Louis, Mo.) for 3-4 days in the presence or absence of TGFβ. All reagents (see below) were added at the time of T cell activation and again at 48 hours post activation unless indicated otherwise. For some experiments, purified CD4^+ CD25^− T cells, CD8^+ T cells or B cells were labeled with 1 μM CFSE (Invitrogen) prior to activation in accordance with manufacturer's instructions. Human T cell activation was performed by plating purified monocytes in a 96-well flat bottom plate at a concentration of 2×10^4 cells per well in complete medium overnight. 10^5 purified human memory T cells were added to monocyte cultures in the presence of soluble anti-CD3/anti-CD28 beads (Dynabeads, Invitrogen). T cells were expanded in the presence HF or MAZ1310 for up to 6 days.
MAZ1310 (Kamberov, Ph.D. Dissertation, Harvard University, 2008) was generated by chemical derivatization of halofuginone and was used at equal concentrations as a negative control. HF and MAZ1310 were prepared as 100 mM stock solutions in DMSO and diluted to the indicated concentrations. SB-431542 (Inman et al., Mol. Pharmacol. 62:65, 2002) (Tocris bioscience—Ellisville, Mo.) was prepared as a 10 mM stock solution in DMSO and was used in culture at 10 μM. L-tryptophanol was prepared as a 20 mM stock solution in 0.1 M NaOH, pH 7.4 and was used at 0.2 mM. For amino acid starvation experiments, T cells were activated and differentiated as above in D-MEM medium without L-cysteine and L-methionine (Invitrogen—Carlsbad, Calif.), or D-MEM medium without L-leucine. Stocks containing 20 mM L-cysteine (Sigma—St. Louis, Mo.) plus 10 mM L-methionine (Sigma), or 400 mM L-leucine (Sigma) were prepared in ddH2O, pH 1.0 and were added to medium at the indicated concentrations.
For detection of intracellular cytokines in murine cells, cultured T or B cells were stimulated with 10 nM PMA (Sigma) and […] (Sigma) for 4-5 hours in the presence of 10 mM brefeldin A (Sigma). Stimulated cells were harvested, washed with PBS and fixed with PBS plus 4% paraformaldehyde at room temperature for 20 minutes. Cells were then washed with PBS, permeabilized with PBS supplemented with 1% BSA and 0.5% saponin (Sigma) at room temperature for 10 minutes before cytokine-specific antibodies were added and incubated with cells for an additional 20 minutes at room temperature.

Where two headings read alike, the source gives them in different places.

For the compound tunicamycin, the “IL-17 expression in T cells” value (low concentrations of tunicamycin) was “little influence on IL-17 expression”.
For `O=C(CC1NCCCC1O)Cn1cnc2cc(Br)c(Cl)cc2c1=O` (racemic) [HF, halofuginone], the “IL-17 expression with IFNγ and IL-4 blocked by neutralizing antibodies” value is “reduced IL-17 expression”; the “Th17 differentiation in T cells transduced with RORγt-expressing vs empty retroviruses” value is “inhibited Th17 differentiation as effectively”. For the same compound, the “IL-17 expression in cells with equivalent number of cell divisions (CFSE dilution)” value (5 nM, 10 nM HF) is “inhibited IL-17 expression in a dose-dependent manner”. Moreover, under “10 nM HF”, the “IL-17 expression in T cells lacking Foxp3” value is given as “strongly repressed IL-17 expression”, the “Th17 differentiation of T cells expressing STAT3C” value was “remained capable of differentiating into Th17 cells”, the “upregulation of RORγt or RORα during Th17 differentiation” value was “did not interfere” and the “rescue of HF-inhibited Th17 differentiation by added amino acids” value is listed as “only proline rescued Th17 differentiation”. Further, the “time of HF addition for inhibition of IL-17 expression” value (10 nM HF added at times after activation) is “most pronounced when HF was added during a 12-hour window at the start of the culture period”. In addition, the “rescue of HF-inhibited Th17 differentiation by added amino acids” value (10 nM HF, listed as halofuginone) was “Proline, and no other added amino acid, rescues the inhibition of Th17 differentiation”. Also, the “Foxp3 expression in T cells differentiated with TGFβ plus IL-6” value (10 nM HF, day 3) is recorded as “enhanced Foxp3 expression”. For the same compound, the “expression of IL-17 and IL-17f mRNA” value (10 nM, 4 days, Th17 conditions) is given as “impaired”. Also, the IC50 (96 h, restimulation on day 4-5, read-out: IC50 for Th17 differentiation (percentage of IL-17+ IFNγ− cells)) turned out to be 3.6 nM. In addition, the IC50 (read-out: concentration giving 50% inhibition of Th17 cell development) was roughly 3 nM. Further, the “Th17 differentiation of cells expressing YFP or no transgene” value (TAT-Cre treated, TGFβ plus IL-6) is listed as “strongly impaired Th17 differentiation”. Also, the IL-17 production entry (low concentrations of HF (1-10 nM)) is given as “strongly reduced”.
